Data on 22 compounds can be found in ChEMBL document CHEMBL4400561, “Isolation, structural elucidation, and insights into the anti-inflammatory effects of triterpene saponins from the leaves of Stauntonia hexaphylla” (Bioorg Med Chem Lett, 2019).

In general, IC50 refers to the concentration at which inhibition is half-maximal.

Data set [1] relates to RAW264.7. The data set can be described thus: Anti-inflammatory activity in mouse RAW264.7 cells assessed as inhibition of LPS-induced NO production preincubated for 1 hr followed by LPS-stimulation and measured after 18 hrs by Griess reagent-based assay. It counts as functional, cell-based.
The subject of data set [2] is RAW264.7. The data set can be described thus: Cytotoxicity against mouse RAW264.7 cells at anti-inflammatory IC50 after 19 hrs by MTT assay. It counts as cell-based. The conditions noted are these: raw264.7, 19 h. A general note: Tetrazolium assays rely on reduction of a dye to a coloured formazan, in cell work by metabolically active cells.

As to `CC1(C)CC[C@]2(C(=O)O[C@@H]3O[C@H](CO)[C@@H](O)[C@H](O)[C@H]3O)CC[C@]3(C)C(=CC[C@@H]4[C@@]5(C)CC[C@H](O)C(C)(C)[C@@H]5CC[C@]43C)[C@@H]2C1`, in the data set on RAW264.7 [1], the IC50 is more than 50 µM. Moreover, the Activity result in the data set on RAW264.7 [2] is on record as “Non-Toxic”.

Take `CC1(C)CC[C@]2(C(=O)O[C@@H]3O[C@H](CO[C@@H]4O[C@H](CO)[C@@H](O)[C@H](O)[C@H]4O)[C@@H](O)[C@H](O)[C@H]3O)CC[C@]3(C)C(=CC[C@@H]4[C@@]5(C)CC[C@H](O[C@@H]6OC[C@H](O)[C@H](O)[C@H]6O[C@@H]6O[C@H](CO)[C@@H](O)[C@H](O)[C@H]6O)[C@@](C)(CO)[C@@H]5CC[C@]43C)[C@@H]2C1`: in the data set with RAW264.7 [1], the IC50 is more than 50 µM. Moreover, the Activity result with RAW264.7 [2] was “Non-Toxic”.

Consider `CC1(C)CC[C@]2(C(=O)O)CC[C@]3(C)C(=CC[C@@H]4[C@@]5(C)CC[C@H](O)[C@@](C)(CO[C@@H]6O[C@H](CO[C@@H]7O[C@H](CO)[C@@H](O)[C@H](O)[C@H]7O)[C@@H](O)[C@H](O)[C@H]6O)[C@@H]5CC[C@]43C)[C@@H]2C1`, for which the half-inhibitory concentration (IC50) with RAW264.7 [1] was more than 50 µM. The Activity result in the data set with RAW264.7 [2] was “Non-Toxic”.

As to `CC1(C)CC[C@]2(C(=O)O[C@@H]3O[C@H](CO[C@@H]4O[C@H](CO)[C@@H](O)[C@H](O)[C@H]4O)[C@@H](O)[C@H](O)[C@H]3O)CC[C@]3(C)C(=CC[C@@H]4[C@@]5(C)CC[C@H](O[C@@H]6OC[C@H](O)[C@H](O)[C@H]6O)[C@@](C)(CO)[C@@H]5CC[C@]43C)[C@@H]2C1`, the IC50 in the data set on RAW264.7 [1] is more than 50 µM. Moreover, in the data set on RAW264.7 [2], the Activity entry was “Non-Toxic”.

`C=C1CC[C@]2(C(=O)O[C@@H]3O[C@H](CO[C@@H]4O[C@H](CO)[C@@H](O)[C@H](O)[C@H]4O)[C@@H](O)[C@H](O)[C@H]3O)CC[C@]3(C)C(=CC[C@@H]4[C@@]5(C)CC[C@H](O)C(C)(C)[C@@H]5CC[C@]43C)[C@@H]2C1`: the IC50 in the data set on RAW264.7 [1] is more than 50 µM. The Activity entry in the data set on RAW264.7 [2] is “Non-Toxic”.

Regarding `C=C1CC[C@]2(C(=O)O[C@@H]3O[C@H](CO[C@@H]4O[C@H](CO)[C@@H](O)[C@H](O)[C@H]4O)[C@@H](O)[C@H](O)[C@H]3O)CC[C@]3(C)C(=CC[C@@H]4[C@@]5(C)CC[C@H](O)[C@@](C)(CO)[C@@H]5CC[C@]43C)[C@@H]2C1`, the IC50 with RAW264.7 [1] was more than 50 µM. In addition, the Activity result in the data set on RAW264.7 [2] is “Non-Toxic”.

In the case of `C[C@@H]1O[C@@H](O[C@H]2[C@H](O)[C@@H](O)[C@H](OC[C@H]3O[C@@H](OC(=O)[C@]45CCC(C)(C)C[C@H]4C4=CC[C@@H]6[C@@]7(C)CC[C@H](O)C(C)(C)[C@@H]7CC[C@@]6(C)[C@]4(C)CC5)[C@H](O)[C@@H](O)[C@@H]3O)O[C@@H]2CO)[C@H](O)[C@H](O)[C@H]1O` [CIRENSENOSIDE O], the IC50 in the data set on RAW264.7 [1] was more than 50 µM. The Activity entry with RAW264.7 [2] was “Non-Toxic”.

Turning to `CC1(C)CC[C@]2(C(=O)O[C@@H]3O[C@H](CO[C@@H]4O[C@H](CO)[C@@H](O)[C@H](O)[C@H]4O)[C@@H](O)[C@H](O)[C@H]3O)CC[C@]3(C)C(=CC[C@@H]4[C@@]5(C)CC[C@H](O)C(C)(C)[C@@H]5CC[C@]43C)[C@@H]2C1`, the IC50 in the data set on RAW264.7 [1] is more than 50 µM. For the same compound, in the data set with RAW264.7 [2], the Activity result is “Non-Toxic”.

For the compound `CC1(C)CC[C@]2(C(=O)O[C@@H]3O[C@H](CO[C@@H]4O[C@H](CO)[C@@H](O)[C@H](O)[C@H]4O)[C@@H](O)[C@H](O)[C@H]3O)CC[C@]3(C)C(=CC[C@@H]4[C@@]5(C)CC[C@H](O)[C@@](C)(CO)[C@@H]5CC[C@]43C)[C@@H]2C1` [DIPSACUSSAPONIN A], the IC50 in the data set on RAW264.7 [1] was more than 50 µM. For the same compound, the Activity entry in the data set on RAW264.7 [2] is listed as “Non-Toxic”.

Consider `C[C@@H]1O[C@@H](O[C@H]2[C@H](O)[C@@H](O)[C@H](OC[C@H]3O[C@@H](OC(=O)[C@]45CCC(C)(C)C[C@H]4C4=CC[C@@H]6[C@@]7(C)CC[C@H](O)[C@@](C)(CO)[C@@H]7CC[C@@]6(C)[C@]4(C)CC5)[C@H](O)[C@@H](O)[C@@H]3O)O[C@@H]2CO)[C@H](O)[C@H](O)[C@H]1O` [KIZUTA CIRENSENOSIDE O SAPONIN K3], for which the IC50 in the data set with RAW264.7 [1] was more than 50 µM. Moreover, the Activity entry in the data set on RAW264.7 [2] was “Non-Toxic”.

With `CC1(C)CC[C@]2(C(=O)O[C@@H]3O[C@H](CO[C@@H]4O[C@H](CO)[C@@H](O)[C@H](O)[C@H]4O)[C@@H](O)[C@H](O)[C@H]3O)CC[C@]3(C)C(=CC[C@@H]4[C@@]5(C)CC[C@H](O[C@@H]6OC[C@H](O)[C@H](O)[C@H]6O)C(C)(C)[C@@H]5CC[C@]43C)[C@@H]2C1`, the IC50 with RAW264.7 [1] is more than 50 µM. Moreover, the Activity result in the data set with RAW264.7 [2] is “Non-Toxic”.

Turning to `C=C1CC[C@]2(C(=O)O)CC[C@]3(C)C(=CC[C@@H]4[C@@]5(C)CC[C@H](O[C@@H]6OC[C@H](O)[C@H](O)[C@H]6O[C@@H]6O[C@H](CO)[C@@H](O)[C@H](O)[C@H]6O)C(C)(C)[C@@H]5CC[C@]43C)[C@@H]2C1`, the IC50 in the data set on RAW264.7 [1] came out at 16.6 µM. In addition, the Activity result with RAW264.7 [2] was “Non-Toxic”.

On to `C[C@@H]1C[C@H]2[C@@H]3CCC4=CC(=O)C=C[C@]4(C)[C@@]3(F)[C@@H](O)C[C@]2(C)[C@@]1(O)C(=O)CO` [DEXAMETHASONE], for which the IC50 with RAW264.7 [1] was determined as 0.13 µM. Besides, in the data set on RAW264.7 [2], the Activity result is “Non-Toxic”.

As to `CC1(C)CC[C@]2(C(=O)O[C@@H]3O[C@H](CO[C@@H]4O[C@H](CO)[C@@H](O)[C@H](O)[C@H]4O)[C@@H](O)[C@H](O)[C@H]3O)CC[C@]3(C)C(=CC[C@@H]4[C@@]5(C)CC[C@H](O[C@@H]6OC[C@H](O)[C@H](O)[C@H]6O[C@@H]6O[C@H](CO)[C@@H](O)[C@H](O)[C@H]6O)C(C)(C)[C@@H]5CC[C@]43C)[C@@H]2C1`, in the data set on RAW264.7 [1], the IC50 is more than 50 µM. In the data set on RAW264.7 [2], the Activity result was “Non-Toxic”.

With `CC1(C)CC[C@]2(C(=O)O[C@@H]3O[C@H](CO[C@@H]4O[C@H](CO)[C@@H](O)[C@H](O)[C@H]4O)[C@@H](O)[C@H](O)[C@H]3O)CC[C@]3(C)C(=CC[C@@H]4[C@@]5(C)CC[C@H](O[C@@H]6OC[C@H](O)[C@H](O[C@@H]7O[C@H](CO)[C@@H](O)[C@H](O)[C@H]7O)[C@H]6O)C(C)(C)[C@@H]5CC[C@]43C)[C@@H]2C1`, the IC50 in the data set on RAW264.7 [1] is more than 50 µM. The Activity result in the data set on RAW264.7 [2] is recorded as “Non-Toxic”.

`CC1(C)CC[C@]2(C(=O)O)CC[C@]3(C)C(=CC[C@@H]4[C@@]5(C)CC[C@H](O)[C@@](C)(CO[C@@H]6O[C@H](CO)[C@@H](O)[C@H](O)[C@H]6O)[C@@H]5CC[C@]43C)[C@@H]2C1`: the IC50 with RAW264.7 [1] is more than 50 µM. For the same compound, the Activity entry with RAW264.7 [2] is given as “Non-Toxic”.

Regarding `C=C1CC[C@]2(C(=O)O[C@@H]3O[C@H](CO[C@@H]4O[C@H](CO)[C@@H](O)[C@H](O)[C@H]4O)[C@@H](O)[C@H](O)[C@H]3O)CC[C@]3(C)C(=CC[C@@H]4[C@@]5(C)CC[C@H](O[C@@H]6OC[C@H](O)[C@H](O)[C@H]6O[C@@H]6O[C@H](CO)[C@@H](O)[C@H](O)[C@H]6O)C(C)(C)[C@@H]5CC[C@]43C)[C@@H]2C1`, the IC50 in the data set on RAW264.7 [1] is more than 50 µM. In addition, the Activity entry in the data set with RAW264.7 [2] is listed as “Non-Toxic”.

Regarding `C=C1CC[C@]2(C(=O)O[C@@H]3O[C@H](CO[C@@H]4O[C@H](CO)[C@@H](O[C@@H]5O[C@@H](C)[C@H](O)[C@@H](O)[C@H]5O)[C@H](O)[C@H]4O)[C@@H](O)[C@H](O)[C@H]3O)CC[C@]3(C)C(=CC[C@@H]4[C@@]5(C)CC[C@H](O)C(C)(C)[C@@H]5CC[C@]43C)[C@@H]2C1`, in the data set on RAW264.7 [1], the IC50 was more than 50 µM. Also, the Activity result in the data set with RAW264.7 [2] was “Non-Toxic”.

As to `C[C@@H]1O[C@@H](O[C@H]2[C@H](O[C@H]3CC[C@@]4(C)[C@@H](CC[C@]5(C)[C@@H]4CC=C4[C@@H]6CC(C)(C)CC[C@]6(C(=O)O[C@@H]6O[C@H](CO[C@@H]7O[C@H](CO)[C@@H](O[C@@H]8O[C@@H](C)[C@H](O)[C@@H](O)[C@H]8O)[C@H](O)[C@H]7O)[C@@H](O)[C@H](O)[C@H]6O)CC[C@]45C)[C@]3(C)CO)OC[C@H](O)[C@@H]2O)[C@H](O)[C@H](O)[C@H]1O` [KALOPANAXSAPONIN B], in the data set with RAW264.7 [1], the IC50 is more than 50 µM. In addition, the Activity result in the data set on RAW264.7 [2] is given as “Non-Toxic”.

For `C=C1CC[C@]2(C(=O)O[C@@H]3O[C@H](CO[C@@H]4O[C@H](CO)[C@@H](O[C@@H]5O[C@@H](C)[C@H](O)[C@@H](O)[C@H]5O)[C@H](O)[C@H]4O)[C@@H](O)[C@H](O)[C@H]3O)CC[C@]3(C)C(=CC[C@@H]4[C@@]5(C)CC[C@H](O[C@@H]6OC[C@H](O)[C@H](O)[C@H]6O)[C@@](C)(CO)[C@@H]5CC[C@]43C)[C@@H]2C1`, in the data set with RAW264.7 [1], the IC50 was more than 50 µM. Further, the Activity result in the data set on RAW264.7 [2] is “Non-Toxic”.

In the case of `C[C@@H]1O[C@@H](O[C@H]2[C@H](O[C@H]3CC[C@]4(C)[C@H]5CC=C6[C@@H]7CC(C)(C)CC[C@]7(C(=O)O)CC[C@@]6(C)[C@]5(C)CC[C@H]4C3(C)C)OC[C@H](O)[C@@H]2O[C@@H]2O[C@H](CO)[C@@H](O)[C@H](O)[C@H]2O)[C@H](O)[C@H](O)[C@H]1O`, in the data set with RAW264.7 [1], the half-inhibitory concentration (IC50) is more than 50 µM. Besides, the Activity result in the data set on RAW264.7 [2] is given as “Non-Toxic”.

As to `C[C@@H]1O[C@@H](O[C@H]2[C@H](O)[C@@H](O)[C@H](OC[C@H]3O[C@@H](OC(=O)[C@]45CCC(C)(C)C[C@H]4C4=CC[C@@H]6[C@@]7(C)CC[C@H](O[C@@H]8OC[C@H](O)[C@H](O)[C@H]8O)[C@@](C)(CO)[C@@H]7CC[C@@]6(C)[C@]4(C)CC5)[C@H](O)[C@@H](O)[C@@H]3O)O[C@@H]2CO)[C@H](O)[C@H](O)[C@H]1O` [CAULOSIDE D], the IC50 in the data set on RAW264.7 [1] is more than 50 µM. For the same compound, the Activity result in the data set on RAW264.7 [2] is “Non-Toxic”.
